{"source": "paper PMC9954641", "about": "“Molecular Insight into Drug Resistance Mechanism Conferred by Aberrant PIK3CD Splice Variant in African American Prostate Cancer” (Cancers, 2023)", "type_in_all_cases": "biochemical", "key": {"[1]": {"target": "T1, PI3Kδ-L (full-length PI3Kδ) (Homo sapiens, UniProt O00329)", "T1 construct": "gene PIK3CD; full-length PI3Kδ-L, V5-His tagged, Ni-NTA purified from transfected LNCaP and MDA PCa 2b cells", "T1 sequence (O00329 1-1044)": "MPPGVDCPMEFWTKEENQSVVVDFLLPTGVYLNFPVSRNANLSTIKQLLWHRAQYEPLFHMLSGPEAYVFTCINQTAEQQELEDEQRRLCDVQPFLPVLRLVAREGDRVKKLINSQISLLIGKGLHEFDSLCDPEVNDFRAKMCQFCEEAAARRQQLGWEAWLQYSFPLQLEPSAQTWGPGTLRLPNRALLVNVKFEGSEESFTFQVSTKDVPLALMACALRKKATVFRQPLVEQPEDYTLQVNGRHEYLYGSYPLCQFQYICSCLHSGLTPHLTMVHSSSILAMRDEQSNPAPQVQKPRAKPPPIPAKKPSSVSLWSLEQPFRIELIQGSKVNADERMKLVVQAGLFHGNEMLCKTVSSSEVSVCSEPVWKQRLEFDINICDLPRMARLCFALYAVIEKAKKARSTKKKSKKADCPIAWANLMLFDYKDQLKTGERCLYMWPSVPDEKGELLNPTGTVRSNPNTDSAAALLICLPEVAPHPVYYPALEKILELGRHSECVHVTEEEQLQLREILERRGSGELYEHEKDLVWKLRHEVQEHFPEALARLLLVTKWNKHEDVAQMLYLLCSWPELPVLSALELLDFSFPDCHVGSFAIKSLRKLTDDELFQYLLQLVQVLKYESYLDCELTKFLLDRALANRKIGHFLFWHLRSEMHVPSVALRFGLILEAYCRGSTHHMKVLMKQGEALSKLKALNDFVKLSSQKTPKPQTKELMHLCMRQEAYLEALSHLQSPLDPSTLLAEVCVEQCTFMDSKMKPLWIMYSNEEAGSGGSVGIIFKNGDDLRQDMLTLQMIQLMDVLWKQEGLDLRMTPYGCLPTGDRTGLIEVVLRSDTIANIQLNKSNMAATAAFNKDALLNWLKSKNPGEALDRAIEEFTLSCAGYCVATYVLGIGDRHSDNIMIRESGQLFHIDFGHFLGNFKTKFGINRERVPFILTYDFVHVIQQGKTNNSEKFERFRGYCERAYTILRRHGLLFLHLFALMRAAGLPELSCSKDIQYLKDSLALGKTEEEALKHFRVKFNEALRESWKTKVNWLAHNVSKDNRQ", "assay": "cell-free PI3 kinase activity assay at […]; also ATP-competitive binding assay ([…] less ATP bound)"}, "[2]": {"target": "T1, PI3Kδ-L (full-length PI3Kδ)", "assay": "cell-free PI3 kinase activity assay at […]; also ATP-competitive binding assay ([…] less ATP bound)", "remark": "listed apart in the source"}, "[3]": {"target": "T1, PI3Kδ-L (full-length PI3Kδ)", "assay": "cell-free PI3 kinase activity assay at […] (no effect at […] on MDA PCa 2b-derived protein); also ATP-competitive binding assay ([…] less ATP bound)"}}, "note": "Where two headings read alike, the source gives them in different places.", "data": [{"smiles": "Cn1c(=O)n(-c2ccc(C(C)(C)C#N)cc2)c2c3cc(-c4cnc5ccccc5c4)ccc3ncc21", "note": "[Dactolisib]", "values": [{"measurement": "cell-free PI3 kinase activity assay at 1 and 10 μM; also ATP-competitive binding", "setting": "[1]", "value": "Idelalisib, Seletalisib, Wortmannin, and Dactolisib effectively suppressed the PI3Kδ-L activities"}]}, {"smiles": "[O-][n+]1cccc(-c2nc3c(Cl)cccc3cc2[C@@H](Nc2ncnc3cccnc23)C(F)(F)F)c1", "note": "[Seletalisib]", "values": [{"measurement": "cell-free PI3 kinase activity assay at 1 and 10 μM; also ATP-competitive binding", "setting": "[2]", "value": "Idelalisib, Seletalisib, Wortmannin, and Dactolisib effectively suppressed the PI3Kδ-L activities"}]}, {"smiles": "COC[C@H]1OC(=O)c2coc3c2[C@@]1(C)C1=C(C3=O)[C@@H]2CCC(=O)[C@@]2(C)C[C@H]1OC(C)=O", "note": "[Wortmannin]", "values": [{"measurement": "cell-free PI3 kinase activity assay at 1 and 10 μM (no effect at 1 μM on MDA PCa)", "setting": "[3]", "value": "Idelalisib, Seletalisib, Wortmannin, and Dactolisib effectively suppressed the PI3Kδ-L activities"}]}]}
